Laboratory results from PMC12164026, “Plant-derived nodule-specific cysteine-rich peptides as potent antifungal agents against Cryptococcus neoformans: mechanisms of action, chimeric peptide enhancement, and immunomodulatory effects” (Current Research in Microbial Sciences, 2025).
≈ marks a conversion by molar mass, not a printed value. Peptide text beside a SMILES is read from it.

Columns and labels:
[1] = test system: Cryptococcus neoformans IFM 5844; test: microbe, parasite or virus in culture; assay type: cell-based; details: IFM 5844, 48 h; read-out: MIC
Procedure: The susceptibility of Cryptococcus neoformans IFM 5844 to 20 peptides (Supplementary Table 1) was tested in a widely used synthetic medium to cultivate yeasts (YNB) and in a serum-free medium what is able to support the proliferation of macrophage cells (X-VIVO).
YNB medium: five-fold diluted Difco Yeast Nitrogen Base w/o Amino Acids medium (Becton, Dickinson and Company, Sparks, MD, USA) supplemented with 1 % dextrose
The minimal inhibitory concentration (MIC) of each peptide was determined by using micro-dilution assay. The C. neoformans suspensions were adjusted to 5 × 10^4 cells/mL concentration in either YNB or X-VIVO medium. A 96-well microtiter plate was prepared by adding 95 µL suspension per well followed by 5 µL of serially two-fold diluted peptide solutions achieving a final volume of 100 µl. The concentration of the peptides ranged from 25 to 0.39 µM. For control samples, 5 µL pure medium was added to the yeast cell suspension instead of peptides. Plates were incubated at 37 °C for 48 h in X-VIVO medium and 30 °C for 72 h in YNB medium. After incubation, optical density was measured at 620 nm using a SPECTROstar Nano plate reader (BMG LabTech, Offenburg, Germany). […] The experiments were carried out in three independent biological replicates.

[2] = test system: Cryptococcus neoformans IFM 5844; test: Minimal fungicidal concentration (MFC) determination, spotting on YPD; assay type: cell-based; details: cultures from MIC assays diluted and spotted onto solid YPD, 30 °C, 48 h
Procedure: Minimal fungicidal concentration (MFC) determination. To assess fungicidal activity, both control and peptide-treated cultures from the MIC assays were diluted 10-fold and 100-fold in sterile distilled water. Five µL from each dilution was then spotted onto solid YPD medium (1 % pepton, 1 % dextrose, 0.5 % yeast extract, 2 % agar). The plates were incubated at 30 °C for 48 h and fungal growth was evaluated. MFC was defined as the lowest peptide concentration at which no visible fungal growth was detected, indicating complete fungicidal activity.

[3] = test system: C. neoformans IFM 5844 cells; test: Short-term sub-MIC killing, CFU counts; assay type: cell-based, Cryptococcus neoformans; details: for proportion of viable cells (CFU relative to control): 0.19 µM (half-MIC), YNB, 2 × 10^6 cells/mL; for reduction in colony-forming units: 30 min
Procedure: To assess the time-dependent fungicidal activity of X1-NCR247C, C. neoformans cells cultivated for 16 h at 30 °C were collected by centrifugation and washed twice with sterile distilled water. […] Following treatment, cells were pelleted by centrifugation washed with distilled water and serially diluted 10-fold and 100-fold. Fifty microliters of each dilution were plated onto solid YPD medium in triplicate.
After treatment, the cells were pelleted by centrifugation, washed with distilled water and serially diluted 10-fold and 100-fold. Fifty microliters of each dilution were spread onto solid YPD medium in triplicate. For both experimental setups colony forming unit (CFU) counts were determined after 48-hours incubation at 30 °C. The CFU values of peptide-treated samples were compared to untreated control samples, providing insights into the extent of fungal viability reduction. Three independent biological replicates were performed.

[4] = test system: C. neoformans IFM 5844 protoplasts; test: Susceptibility of protoplasts to peptide, CFU counts; assay type: cell-based, Cryptococcus neoformans; details: 30 min, YNB + 0.8 M sorbitol
Procedure: The C. neoformans IFM 5844 strain was grown in YPD nutrient solution at 30 °C for 12 h by vigorous shaking until the exponential phase was reached (about 5 × 10^7 cells/mL).
For protoplast preparation cells were harvested by centrifugation and re-suspended in 20 mL of pre-treatment buffer (10 mM Tris–HCl, pH 9; 5 mM EDTA-Na2) supplemented with 0.1 % 2-mercaptoethanol. After incubation at room temperature for 20 min, the samples were centrifuged and the cell pellet was washed with 0.8 M sorbitol solution. The pellet was then re-suspended in 20 mL of protoplasting solution (prepared by dissolving 1 g lyophilised Helix pomatia digestive enzyme in 100 mL sorbitol) and the suspension was incubated for 60 min at room temperature. Protoplast formation was monitored every 30 min under bright field microscope. Once formed, protoplasts were collected by centrifugation, washed twice with 0.8 M sorbitol, and their concentration was determined in a Bürker chamber.
To assess peptide susceptibility, 2 × 10^6 protoplasts and the same number of intact cells were treated separately with X1-NCR247C peptide at 0.78 or 0.39 µM in YNB supplemented with 0.8 M sorbitol for 30 min at 30 °C. […] Plates were incubated for 3 days at 30 °C, after which colony forming units were counted to determine the survival rate of peptide-treated cells and protoplasts.

CSCC[C@H](NC(=O)[C@H](CCCCN)NC(=O)[C@H](Cc1ccccc1)NC(=O)[C@H](CC(N)=O)NC(=O)[C@H](CC(C)C)NC(=O)[C@@H]1CCCN1C(=O)[C@@H](N)CCCNC(=N)N)C(=O)N[C@@H](CC(C)C)C(=O)N[C@@H](CCCNC(=N)N)C(=O)N[C@@H](Cc1ccccc1)C(=O)N[C@@H](Cc1c[nH]c2ccccc12)C(=O)NCC(=O)N[C@@H](CCC(N)=O)C(=O)N[C@@H](CCC(N)=O)C(=O)N[C@@H](CCC(N)=O)C(=O)N[C@@H](CS)C(=O)N[C@@H](CCCNC(=N)N)C(=O)N[C@@H](CCCNC(=N)N)C(=O)N1CCC[C@H]1C(=O)N[C@@H](CC(C)C)C(=O)N[C@@H](Cc1ccc(O)cc1)C(=O)N[C@@H](CS)C(=O)N[C@@H](CCCNC(=N)N)C(=O)N[C@@H](CCCNC(=N)N)C(=O)N[C@@H](CCCNC(=N)N)C(N)=O [X1-NCR247C] (H-RPLNFKMLRFWGQQQCRRPLYCRRR-NH2; N-terminus assumed)
MIC [1]: 1.56 µM (≈ 5.16 µg/mL) | fungistatic or fungicide mode of action [2]: fungicidal effect | proportion of viable cells (CFU relative to control) ([3]; 5 min): 25% | proportion of viable cells (CFU relative to control) ([3]; 60 min): 5% | reduction in colony-forming units ([3]; half-MIC (0.19 µM), p ≤ 0.001): highly significant decrease | reduction in colony-forming units ([3]; quarter-MIC, p ≤ 0.05): notable reduction | CFU count reduction relative to untreated control ([4]; 0.39 µM): 43% | CFU count reduction relative to untreated control ([4]; 0.78 µM): 83%
